Reference: ChEMBL document CHEMBL1201862, “PubChem BioAssay data set” (2004)
Activity calls are given as the source filed them.

Experiments:
Cytochrome P450 2D6 = Cytochrome P450 2D6 (Homo sapiens, UniProt P10635);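 further: CYP2D6 member of a cytochrome P450 panel assay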
Cytochrome P450 3A4 = Cytochrome P450 3A4 (Homo sapiens, UniProt P08684);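 further: CYP3A4 tested as one member of a cytochrome P450 panel screen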
Cytochrome P450 2C19 = Cytochrome P450 2C19 (Homo sapiens, UniProt P33261); assay: Cytochrome panel assay with activity outcomes. Panel member name: p450-cyp2c19 Compounds with AC50 equal or less than 10 uM are considered active; type: functional
[1] = viability of uninfected HEp-2 cells – cell-based, HTS, cytotoxicity control for RSV inhibitor project, dose response (AID 2410); type: functional; details: human respiratory syncytial virus
[2] = microbe, parasite or virus in culture; type: functional; details: Mycobacterium tuberculosis
[3] = luciferase reporter signal suppression in cells – H4 neuroglioma cells, luminescence, dose response (AID 1990); type: functional, cell-based
[4] = Luminescence Cell-Based Dose Response HTS to Identify Inhibitors of 5'UTR Stem-Loop Driven Prion Protein mRNA Translation in H4 Neuroglioblastoma Cells. [Related pubchem assays: 1827 (Project Summary), 1813 (Primary HTS)]; type: functional
[5] = alpha-synuclein stem-loop luciferase translation blockers – H4 neuroglioma cells, luminescence, confirmation (AID 1988); type: functional, cell-based
INS1 = assay: INS-1E survival protection against cytokine death – cell-based, luminescence, retest, dose response (AID 449756); type: functional; details: Rattus norvegicus;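 further: cell death triggered by IL-1 beta plus TNF-alpha plus IFN-gamma mixture; protective hits raise ATP signal compared with cytokine alone wells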
[6] = fluconazole-exposed Candida albicans growth modulators – fluorescence, retest, confirmation (AID 2467); type: functional, cell-based
[7] = NIH-3T3 fibroblast cytotoxicity, dose response, cytotoxicity control, cell-based, fluorescence, Alamar Blue, secondary assay (AID 2327); type: functional;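 further: NIH-3T3 mouse fibroblasts cultured with fluconazole at 8 µg/mL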
[8] = viability of HCT116 lacking mutant beta-catenin – cell-based, human colon tumor, dose response (AID 1045); type: functional;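 further: HCT116 colon tumor cells with beta catenin knocked out; cells exposed to compound for 60 hours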
[9] = Luminescence Cell-Based Dose Response HTS to Identify Activators of Luciferase Translation or Activity in H4 […] Cells. [Related pubchem assays: 1829 (Project Summary), 1814 (Primary HTS)]; type: functional
H4 = assay: Luminescence Cell-Based Dose Response HTS to Identify Activators of 5'UTR Stem-Loop Driven Prion Protein mRNA Translation in H4 Neuroglioblastoma Cells. [Related pubchem assays: 1829 (Project Summary), 1814 (Primary HTS)]; type: functional; details: Homo sapiens
[10] = Luminescence Cell-Based Dose Retest to Confirm Inhibitors of Cancer Stem Cells. [Related pubchem assays (depositor defined):AID2717, AID2721]; type: functional; details: Homo sapiens
Cytochrome P450 1A2 = target: T1, Cytochrome P450 1A2 (Homo sapiens, UniProt P05177);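 further: PubChem cytochrome P450 panel assay, CYP1A2 panel member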
T1 sequence (P05177 whole entry): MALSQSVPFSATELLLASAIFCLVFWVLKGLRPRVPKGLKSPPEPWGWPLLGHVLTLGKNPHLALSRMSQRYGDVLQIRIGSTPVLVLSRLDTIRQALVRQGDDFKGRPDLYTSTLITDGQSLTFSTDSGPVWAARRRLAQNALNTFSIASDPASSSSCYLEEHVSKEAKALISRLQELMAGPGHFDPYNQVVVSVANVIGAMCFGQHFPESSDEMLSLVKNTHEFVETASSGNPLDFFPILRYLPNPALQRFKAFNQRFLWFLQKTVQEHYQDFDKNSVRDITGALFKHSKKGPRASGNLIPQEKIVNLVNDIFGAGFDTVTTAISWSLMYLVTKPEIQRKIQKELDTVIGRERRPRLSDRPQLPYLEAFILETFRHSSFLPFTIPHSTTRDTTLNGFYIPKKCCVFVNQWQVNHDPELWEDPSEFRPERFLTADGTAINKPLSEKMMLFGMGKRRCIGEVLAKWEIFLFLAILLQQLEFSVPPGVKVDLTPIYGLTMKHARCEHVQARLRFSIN

Streptokinase A = target: T2, Streptokinase A (Streptococcus pyogenes serotype M1, UniProt P10520); assay: viability-normalized secreted streptokinase activity reduction – plasminogen activation absorbance, OD405, dose response (AID 1914); type: functional, Streptococcus pyogenes M1 GAS;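 further: secreted streptokinase activity via plasminogen activation per viability signal from cell pellet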
T2 sequence (P10520 whole entry): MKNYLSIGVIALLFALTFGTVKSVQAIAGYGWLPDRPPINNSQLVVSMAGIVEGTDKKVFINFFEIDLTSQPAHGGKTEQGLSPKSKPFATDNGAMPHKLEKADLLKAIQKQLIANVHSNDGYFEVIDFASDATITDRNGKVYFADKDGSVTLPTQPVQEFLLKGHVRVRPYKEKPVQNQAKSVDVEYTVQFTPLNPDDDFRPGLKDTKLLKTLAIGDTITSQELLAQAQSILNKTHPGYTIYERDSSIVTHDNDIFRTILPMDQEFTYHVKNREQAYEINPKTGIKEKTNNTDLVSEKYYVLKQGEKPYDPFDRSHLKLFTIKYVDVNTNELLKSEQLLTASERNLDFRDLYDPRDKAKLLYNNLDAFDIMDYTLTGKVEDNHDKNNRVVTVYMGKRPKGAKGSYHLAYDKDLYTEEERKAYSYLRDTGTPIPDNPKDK

Streptococcus = assay: GAS UMAA2166 growth inhibition – luminescence, BacTiterGlo, counter-screen for streptokinase expression inhibitor project, dose response (AID 1915); type: functional, organism-based;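 further: potency for reduction of bacterial viability or growth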
[11] = test system: Streptococcus sp. 'group A'; assay: Streptococcus pyogenes SK(-)GAS viability under kanamycin – luminescence, BacTiterGlo, confirmation, counter-screen for streptokinase expression inhibitor project, dose response (AID 1900); type: functional, organism-based

Cytochrome P450 2D6, sequence (P10635 whole entry): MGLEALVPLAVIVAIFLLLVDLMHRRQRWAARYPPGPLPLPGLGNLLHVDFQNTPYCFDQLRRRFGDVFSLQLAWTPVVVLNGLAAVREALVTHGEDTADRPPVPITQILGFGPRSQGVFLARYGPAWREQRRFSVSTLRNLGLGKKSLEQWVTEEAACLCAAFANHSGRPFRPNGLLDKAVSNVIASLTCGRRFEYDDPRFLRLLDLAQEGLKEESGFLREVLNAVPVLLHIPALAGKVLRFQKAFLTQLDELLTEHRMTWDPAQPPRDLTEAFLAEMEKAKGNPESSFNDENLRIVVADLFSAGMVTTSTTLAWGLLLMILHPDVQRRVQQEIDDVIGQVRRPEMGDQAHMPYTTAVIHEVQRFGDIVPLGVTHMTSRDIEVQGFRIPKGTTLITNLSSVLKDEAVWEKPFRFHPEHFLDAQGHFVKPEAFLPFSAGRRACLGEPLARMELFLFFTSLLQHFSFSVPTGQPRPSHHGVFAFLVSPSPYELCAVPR
Cytochrome P450 3A4, sequence (P08684 whole entry): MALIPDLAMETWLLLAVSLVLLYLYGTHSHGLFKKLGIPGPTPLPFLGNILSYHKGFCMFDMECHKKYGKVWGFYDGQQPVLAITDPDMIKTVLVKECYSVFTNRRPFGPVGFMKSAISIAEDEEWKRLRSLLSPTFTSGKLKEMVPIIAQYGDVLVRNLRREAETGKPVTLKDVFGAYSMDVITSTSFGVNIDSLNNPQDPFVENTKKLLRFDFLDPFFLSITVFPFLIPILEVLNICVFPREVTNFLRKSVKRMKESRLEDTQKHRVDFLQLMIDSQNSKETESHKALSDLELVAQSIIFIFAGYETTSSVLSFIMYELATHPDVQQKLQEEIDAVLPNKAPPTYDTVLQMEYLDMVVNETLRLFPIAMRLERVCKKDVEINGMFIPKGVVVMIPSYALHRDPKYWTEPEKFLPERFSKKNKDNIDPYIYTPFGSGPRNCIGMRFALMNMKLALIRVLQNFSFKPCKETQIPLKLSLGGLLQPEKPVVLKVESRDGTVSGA
Cytochrome P450 2C19, sequence (P33261 whole entry): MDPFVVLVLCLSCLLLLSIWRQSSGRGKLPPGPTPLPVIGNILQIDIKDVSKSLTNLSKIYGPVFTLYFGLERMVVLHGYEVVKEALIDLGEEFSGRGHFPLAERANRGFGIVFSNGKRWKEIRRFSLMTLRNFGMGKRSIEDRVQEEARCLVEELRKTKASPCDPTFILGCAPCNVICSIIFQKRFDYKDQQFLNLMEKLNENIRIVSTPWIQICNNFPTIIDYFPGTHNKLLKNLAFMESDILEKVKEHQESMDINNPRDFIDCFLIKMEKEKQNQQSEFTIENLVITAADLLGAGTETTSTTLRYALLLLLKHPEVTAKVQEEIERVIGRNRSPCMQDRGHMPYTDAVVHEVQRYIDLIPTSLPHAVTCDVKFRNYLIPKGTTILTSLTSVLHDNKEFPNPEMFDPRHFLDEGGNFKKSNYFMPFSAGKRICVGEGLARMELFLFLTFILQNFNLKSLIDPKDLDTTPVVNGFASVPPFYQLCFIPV

In the case of C/C(CCN1CCCCc2nc(C)c(C)cc21)=N\O[C@@H](C)CN1CCCCc2nc(C)c(C)cc21, the AC50 (Cytochrome P450 2D6) is reported as 5.01 µM (inconclusive).
For CN(C)c1nc(-c2ccoc2)nc2ccccc12, the AC50 (Cytochrome P450 2D6) was 39.8 µM (inconclusive), the AC50 (Cytochrome P450 3A4) was 25.1 µM (inconclusive) and the AC50 (Cytochrome P450 2C19; read-out: AC50) was 31.6 µM (inconclusive).
In the case of Cc1ccc(CSCc2ccc(C(=O)NCCC(C)C)o2)cc1, the CC50 [1] is reported as 20.2 µM (active).
In the case of CC1CCc2c(sc3ncnc(NCCCOC(C)C)c23)C1 (stereo not given), the CC50 [2] is reported as > 40 µM (active).
In the case of Cc1cc(Nc2ccc(Br)cc2)nc(-c2ccccc2O)n1, the CC50 [1] is reported as 31.9 µM (active).
In the case of CCOc1ccc(-n2c(SCC(=O)Nc3nccs3)nc3c(c2=O)SCC3)cc1, the EC50 [3] is reported as 11.7 µM (active), the EC50 [4] is reported as 19.1 µM (active) and the EC50 [5] is reported as 12.8 µM (active).
With CCS(=O)(=O)c1ccc(OC)c(N=Nc2ccc(O)c3ncccc23)c1 the AC50 (INS1) was 8.44 µM (active).
With CCCc1ccc(C(=O)NNc2cccc(C)c2)cc1 the EC50 [6] was > 38 µM (not active) and the EC50 [7] was 30.2 µM (active).
With CCC(C)C1C(C#N)=C(N)Oc2[nH]nc(C)c21 (stereo not given) the EC50 [8] was 189 µM (active).
With CC(=O)NCCNc1nc(-c2ccc(N(C)C)cc2)nc2ccccc12 the AC50 (Cytochrome P450 2D6) was 20 µM (inconclusive) and the AC50 (Cytochrome P450 3A4) was 10 µM (inconclusive).
For COc1ccc(-c2nn(-c3ccccc3)cc2/C=C\C(=O)Nc2ccc(C(=O)O)cc2)cc1, the CC50 [1] was 26.4 µM (active).
For Oc1nc2c(-c3cccc(Br)c3)nnn2c2ccccc12, the EC50 [9] was 0.258 µM (active) and the EC50 (H4) was 18.8 µM (active).
In the case of Fc1cccc(CCN2CCNC[C@H]2Cc2cccc3ccccc23)c1, the CC50 [2] is reported as 26.2 µM (active).
For Cc1cc(C)cc(NC(=O)NCC(O)COc2ccc([N+](=O)[O-])cc2)c1 (stereo not given), the CC50 [1] was > 50 µM (active).
For CSc1ccccc1OCc1cc(C(=O)N2CCc3c(Cl)cccc3C2)no1, the AC50 (INS1) was 7.1 µM (active).
For COc1cc(OC)cc(N(C(=O)C2COc3ccccc3O2)C(C(=O)NC2CCCCC2)c2ccc(O)cc2)c1 (stereo not given), the EC50 [6] was 0.798 µM (inconclusive) and the EC50 [7] was 94.7 µM (active).
With COC(=O)c1cn(S(=O)(=O)c2ccccc2)c2ccccc12 the EC50 [3] was > 120 µM (not active), the EC50 [4] was > 120 µM (not active) and the EC50 [5] was > 120 µM (not active).
With COc1cc(/C=C/c2nc(O)nc(O)c2[N+](=O)[O-])ccc1OCCC(C)C the AC50 [10] was 5.94 µM (active) and the CC50 [1] was 19.1 µM (active).
In the case of Cc1ccc(C(=O)C[n+]2ccc(Cc3ccccc3)cc2)cc1, the EC50 [3] is reported as 14.3 µM (active), the EC50 [4] is reported as 13.7 µM (active) and the EC50 [5] is reported as 10.5 µM (active).
In the case of CCOC(=O)N1CCN(C(=O)c2cccn3c(=O)c4cc(Cl)ccc4nc23)CC1, the AC50 (Cytochrome P450 1A2) is reported as 25.1 µM (inconclusive).
With NC(CC(=O)Nc1cc(C(F)(F)F)ccc1Cl)=NO the AC50 (Cytochrome P450 3A4) was 3.98 µM (inconclusive) and the AC50 (Cytochrome P450 2C19) was “inconclusive”.
With Cc1ccc(C(NC(=O)NC(C)c2ccccc2)C(Cl)(Cl)Cl)cc1F (stereo not given) the EC50 (Streptokinase A) was 7.32 µM (active), the EC50 [3] was 12 µM (active) and the EC50 [4] was 18.7 µM (active). For the same compound, the EC50 (Streptococcus) was 99.7 µM (active), the EC50 [5] was > 120 µM (not active) and the EC50 [11] was 3.25 µM (active).
In the case of COc1ccc(COC(=O)N/N=C2/C[C@@H](O)[C@@H](O)[C@@H]3[C@H]4C(=O)N(c5ccc(F)cc5F)C(=O)[C@@H]4CC[C@H]23)cc1, the AC50 (Cytochrome P450 3A4) is reported as 6.31 µM (inconclusive).
For COCCCNC(=O)Cn1nnc(-c2ccc(NC(=O)c3cccnc3)cc2)n1, the AC50 (INS1) was 3.95 µM (active).
For O=C1CCCN1c1ccc(S(=O)(=O)Oc2cccc(Cl)c2)cc1[N+](=O)[O-], the AC50 (Cytochrome P450 2D6) was 1.78 µM (inconclusive).
In the case of CCCC1CCC(c2ccc(C(=O)NN)cc2)CC1 (stereo not given), the AC50 (INS1) is reported as 10.9 µM (active).
